From patent US12539335B2, “Tricyclic polypeptide conjugated drug and use thereof” (CONJUSTAR (ZHUHAI) BIOLOGICS CO., LTD., priority 2021, dated 2026)
Structures can show the parent of a compound that is named as a salt. Starred links: 1 amine or outer side, 2 acyl side, 3 side chain; linkers in the order of their positions; H or OH if unused. Positions of bridges follow the written chain, without caps; N, C: chain ends. Non-standard residues stand in square brackets, D forms with d. Residues, ends and D or L forms follow the SMILES beside them. Chains are numbered I, II in the order given. *: point of attachment. TATA = O=C(CC[*:1])N1CN(C(=O)CC[*:2])CN(C(=O)CC[*:3])C1; Dolaproine = CO[C@@H]([C@@H]1CCCN1)[C@@H](C)C(=O)O; Dil = CC[C@H](C)[C@H](NC)[C@@H](CC(=O)O)OC; 1Nal = N[C@@H](Cc1cccc2ccccc12)C(=O)O; X2 = O=C(CCCC(=O)[*:2])NCCC(=O)[*:1]; PABC = O=C(OCc1ccc(N[*:1])cc1)[*:2]; X1 = C[C@@H](N*)[C@@H](O)c1ccccc1; Hyp = O=C(O)[C@@H]1C[C@@H](O)CN1; hArg = N=C(N)NCCCC[C@H](N)C(=O)O; Cit = NC(=O)NCCC[C@H](N)C(=O)O; Pen = CC(C)(S)[C@H](N)C(=O)O; NMeV = CN[C@H](C(=O)O)C(C)C; Sar = CNCC(=O)O

Legend:
[1] = test system: NCI-H292 cells; test: In vitro anti-proliferative activity, CellTiter-Glo, NCI-H292; format: cell-based, Human; settings: NCI-H292, 72 h
Experimental: Test Example 2: In Vitro Anti-Proliferative Activity of the Compounds of the Present Invention on Nci-H292 and Mda-Mb-468 Cells
To investigate the effect of the compounds of the present invention on inhibiting cell proliferation by detecting the effect of the compounds on cell activity in vitro in tumor cell lines MDA-MB-468 and NCI-H292.
The tumor cell lines were cultured in a 37° C., no CO2 incubator and a 37° C., 5% CO2 incubator according to the culture conditions shown in Table 8, respectively. The cells were periodically passaged, and cells in a logarithmic growth phase were taken for plating.
Cells in a logarithmic growth phase were harvested and centrifuged at 1000 rpm for 3 min at room temperature. The supernatant was discarded, and the cells were resuspended in 5 mL of a culture medium. Then, 20 μL of the cell suspension was pipetted and mixed with trypan blue at 1:1 for staining for 3 min to detect cell viability and to count viable cells. The cell density was adjusted to 3000 cells/well. Then, 90 μL of the cell suspension was added to each culture plate well, and a cell-free culture medium was added to blank control wells. The culture plate was incubated overnight in a 37° C., no CO2, and 100% relative humidity incubator and a 37° C., 5% CO2, and 100% relative humidity incubator, respectively.
Preparation of a 400× compound stock plate: The compound to be tested was gradient diluted with DMSO from the highest to the lowest concentration.
Preparation of a 10× compound working solution: 78 μL of a cell culture medium was added to a V-bottomed 96-well plate, and 2 μL of the compound solution of each concentration was pipetted from the 400× compound stock plate into the cell culture medium in the 96-well plate. Then, 2 μL of DMSO was added to vehicle control and blank control. […]
The detection was performed according to the instructions of the Promega CellTiter-Glo Luminescent Cell Viability Assay kit (Promega-G7573). The luminescence signal was detected on the En Vision® Multi-mode Plate Reader (En Vision 2104-10). […]

[2] = Metabolic stability in kidney S9, SD rats; format: in vitro ADME; settings: Sprague-Dawley (SD), rat
Experimental: Test Example 8: Metabolic Stability of the Compounds of the Present Invention in Kidney S9 from Mice, Rats, Cynomolgus Macaques, and Humans
To investigate the metabolic stability of the compounds of the present invention in kidney S9 from mice, rats, Cynomolgus macaques, and humans.
Materials: Kidney S9 from CD-1 mice, SD rats, Cynomolgus macaques, and humans were purchased from BioIVT or XenoTech LLC and stored in a −80° C. refrigerator.
Experimental procedure: Eight 96-well plates, designated T0, T5, T15, T30, T45, T60, Blank, and NCF60, were prepared. The first six incubation plates corresponded to reaction time points of 0, 5, 15, 30, 45, and 60 minutes, respectively. No test sample or control compound was added to the Blank plate.
The T0, T5, T15, T30, T45, and T60 plates were added with a 2 μL working solution of the test sample (10 mM of a solution of the compound to be tested in DMSO, diluted to 100 μM with 100% acetonitrile) and 100 μL of a S9 working solution (kidney S9 protein concentration of 1.0 mg/mL), and the Blank plate was only added with the S9 working solution. The above incubation plates were then placed in a 37° C. water bath for pre-incubation for about 10 minutes.
At the end of the pre-incubation, 98 μL of an auxiliary enzyme working solution was added to each sample well except the TO plate to start the reaction. […]

[3] = Stability in plasma, SD rats; format: in vitro ADME; settings: Sprague-Dawley (SD), rat, 37° C.
Experimental: Test Example 9: Stability Analysis of the Compounds of the Present Invention in Plasma from Different Species
To test the stability of the compounds of the present invention in plasma from SD rats, Cynomolgus macaques, and humans.
The corresponding incubation plates, including T0, T10, T30, T60, T120, and T240 incubation plates, were added with a 2 μL working solution of the compound to be tested (100 μM). Three parallel wells were prepared for each sample. Then, 98 μL of blank plasma from SD rats, Cynomolgus macaques, and humans was added to the corresponding incubation plates to which the working solution had been added. All samples were incubated in a 37° C. water bath. […] At the end of each incubation time point, the corresponding incubation plate was removed, added with stop buffer, precipitated, and centrifuged for 20 minutes. Then, 150 μL of the supernatant was analyzed by the LC-MS/MS method. The concentration of the compound to be tested in the sample was semi-quantitatively determined by the liquid chromatography-tandem mass spectrometry (LC-MS/MS) method.

`CC[C@H](C)[C@@H]([C@@H](CC(=O)N1CCC[C@H]1[C@H](OC)[C@@H](C)C(=O)N[C@H](C)[C@@H](O)c1ccccc1)OC)N(C)C(=O)[C@@H](NC(=O)[C@H](C(C)C)N(C)C(=O)OCc1ccc(NC(=O)[C@H](CCCNC(N)=O)NC(=O)[C@@H](NC(=O)CCCC(=O)NCCC(=O)N(C)CC(=O)N(C)CC(=O)N(C)CC(=O)N(C)CC(=O)N(C)CC(=O)N(C)CC(=O)N(C)CC(=O)N(C)CC(=O)N(C)CC(=O)N(C)CC(=O)N[C@H]2CCCCNC(=O)C[C@@H](C(=O)N[C@H]3CSCCC(=O)N4CN5CN(C4)C(=O)CCSC(C)(C)[C@H](NC(=O)[C@@H](CC(=O)O)NC(=O)[C@H](Cc4cccc6ccccc46)NC(=O)[C@@H]4CCCN4C3=O)C(=O)N[C@@H](CCSC)C(=O)N[C@@H](CCCCNC(=N)N)C(=O)N[C@@H](CC(=O)O)C(=O)N[C@@H](Cc3c[nH]c4ccccc34)C(=O)N[C@@H](CO)C(=O)N[C@@H]([C@@H](C)O)C(=O)N3CCC[C@H]3C(=O)N3C[C@H](O)C[C@H]3C(=O)N[C@@H](Cc3c[nH]c4ccccc34)C(=O)N[C@H](C(N)=O)CSCCC5=O)NC(=O)CN(C)C2=O)C(C)C)cc1)C(C)C` [Acetate salt of PDC_2] (I: [Sar][Sar][Sar][Sar][Sar][Sar][Sar][Sar][Sar][Sar]K[Sar]DCP[1Nal][dD][Pen]M[hArg]DWSTP[Hyp]WC-NH2 / II: V[Cit][PABC][NMeV]V[Dil][Dolaproine]-X1; lactam I:11-I:13; linker I:14-I:18-I:28 via TATA; linker I:N-II:N via X2) gave an IC50 [1] of 42.1 nM, a Maximum inhibition rate [1] of 81.32% and a Minimum inhibition rate [1] of 1.55%. It also gave a half-life at 1 μM [2] of over 2.42 h, a microsomal CLint at 1 μM [2] of under 9.6 µL/min/mg and a half-life at 2 μM [3] of over 9.63 h.
